Consider 14 compounds from ChEMBL document CHEMBL6103646 (J Med Chem, 2025).

Active and inactive are the calls of the source. The rule behind the calls is not given here.

Series [1] deals with Histone deacetylase 1 (Homo sapiens) (UniProt Q13547). The series is described as follows: Inhibition of HDAC1 in human MM1.S cells assessed as increase in acetylated histone H3 level at 1 uM incubated for 6 hrs by Western blot analysis. In kind it is cell-based. In general terms: In western blotting, separated proteins are transferred to a membrane and probed.
Series [2] concerns the target Histone deacetylase 2 (Homo sapiens) (UniProt Q92769). The series is described as follows: Inhibition of HDAC2 in human MM1.S cells assessed as increase in acetylated histone H3 level at 1 uM incubated for 6 hrs by Western blot analysis. In kind it is cell-based.
The next series has as its target T1, Histone deacetylase 11 (Homo sapiens, UniProt Q96DB2).
T1 sequence (Q96DB2 whole entry): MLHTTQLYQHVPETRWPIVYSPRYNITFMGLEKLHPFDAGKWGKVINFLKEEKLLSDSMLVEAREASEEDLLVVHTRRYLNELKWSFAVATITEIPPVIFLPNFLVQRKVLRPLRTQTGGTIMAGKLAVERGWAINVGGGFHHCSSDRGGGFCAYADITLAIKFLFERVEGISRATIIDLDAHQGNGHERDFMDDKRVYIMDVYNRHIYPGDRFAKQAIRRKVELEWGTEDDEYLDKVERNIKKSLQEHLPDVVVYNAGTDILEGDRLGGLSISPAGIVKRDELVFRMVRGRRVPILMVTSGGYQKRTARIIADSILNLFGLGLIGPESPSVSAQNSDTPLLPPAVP
The series is described as follows: Inhibition of HDAC11 (unknown origin) using FAM-labeled peptide substrate by […] mobility shift assay.

The nature of series [3]: Stability of compound in human whole blood assessed as half-life at 1 uM measured upto 40 mins by LC-MS/MS analysis. The format is ADME, tissue-based.
The target of series [4] is Protein cereblon/Protein deacetylase HDAC6 (Homo sapiens) (UniProt Q9UBN7+Q96SW2). The series is described as follows: PROTAC activity at CRBN/HDAC6 in human MM1.S cells assessed as induction of HDAC6 degradation at 0.1 to 1 uM by Western blot analysis. The settings on record: dose 0.1-1 µM. In kind it is cell-based.
Series [5] in a line: Selectivity index, ratio of IC50 for inhibition of HDAC8 (unknown origin) to IC50 for inhibition of HDAC6 (unknown origin).
For the next series, the target named is T2, Histone deacetylase 8 (Homo sapiens, UniProt Q9BY41).
T2 sequence (Q9BY41 whole entry): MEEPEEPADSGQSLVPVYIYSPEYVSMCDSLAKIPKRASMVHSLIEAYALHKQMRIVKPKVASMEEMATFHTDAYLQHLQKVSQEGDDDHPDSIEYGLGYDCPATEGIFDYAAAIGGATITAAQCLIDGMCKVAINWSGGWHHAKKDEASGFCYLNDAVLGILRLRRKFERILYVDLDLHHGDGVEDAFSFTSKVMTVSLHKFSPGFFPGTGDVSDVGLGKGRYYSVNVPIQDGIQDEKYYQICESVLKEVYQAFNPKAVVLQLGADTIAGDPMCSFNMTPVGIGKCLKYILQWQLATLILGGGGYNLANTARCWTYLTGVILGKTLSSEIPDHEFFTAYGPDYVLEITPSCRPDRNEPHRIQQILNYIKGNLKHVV
The experiment in a line: Inhibition of HDAC8 (unknown origin) using FAM-labeled peptide substrate by […] mobility shift assay.

A further series relates to N2a. The experiment in a line: Antiproliferative activity against mouse Neuro2a cells assessed as effect on cell viability by CellTiter-Glo assay. In kind it is functional, cell-based. (In general: In ATP-based viability assays light output follows the ATP content of the culture.)
Another series has as its system MM1.S. The series is described as follows: Antiproliferative activity against human MM1.S cells assessed as reduction in cell viability measured after 72 hrs by CellTiter-Glo assay. The format is functional, cell-based.
Series [6] deals with Protein cereblon/Protein deacetylase HDAC6 (Mus musculus) (UniProt Q9Z2V5+Q8C7D2). The series is described as follows: In vivo PROTAC activity at CRBN/HDAC6 in female C57BL/6J mouse assessed as reduction in HDAC6 protein level in liver at 5 mg/kg, iv measured after 6 hrs by Western blot analysis relative to control. In kind it is functional, organism-based. On the set-up: scale not given: the % may be the effect or the level left.
Chain of Protein cereblon/Protein deacetylase HDAC6 (Mus musculus) (Q8C7D2 whole entry, looked up): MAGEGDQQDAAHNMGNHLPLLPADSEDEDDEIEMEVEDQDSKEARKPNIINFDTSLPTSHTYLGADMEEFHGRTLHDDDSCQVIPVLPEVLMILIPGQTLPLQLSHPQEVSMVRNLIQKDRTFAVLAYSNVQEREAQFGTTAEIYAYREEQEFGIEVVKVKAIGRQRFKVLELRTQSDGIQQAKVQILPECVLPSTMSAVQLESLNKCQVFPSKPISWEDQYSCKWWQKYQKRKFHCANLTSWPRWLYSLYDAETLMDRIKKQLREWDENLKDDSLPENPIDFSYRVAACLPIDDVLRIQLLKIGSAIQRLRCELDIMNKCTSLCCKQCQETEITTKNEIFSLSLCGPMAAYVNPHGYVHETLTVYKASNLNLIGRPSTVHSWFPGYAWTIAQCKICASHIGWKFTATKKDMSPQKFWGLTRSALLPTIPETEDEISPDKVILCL
Chain of Protein cereblon/Protein deacetylase HDAC6 (Mus musculus) (Q9Z2V5 whole entry, looked up): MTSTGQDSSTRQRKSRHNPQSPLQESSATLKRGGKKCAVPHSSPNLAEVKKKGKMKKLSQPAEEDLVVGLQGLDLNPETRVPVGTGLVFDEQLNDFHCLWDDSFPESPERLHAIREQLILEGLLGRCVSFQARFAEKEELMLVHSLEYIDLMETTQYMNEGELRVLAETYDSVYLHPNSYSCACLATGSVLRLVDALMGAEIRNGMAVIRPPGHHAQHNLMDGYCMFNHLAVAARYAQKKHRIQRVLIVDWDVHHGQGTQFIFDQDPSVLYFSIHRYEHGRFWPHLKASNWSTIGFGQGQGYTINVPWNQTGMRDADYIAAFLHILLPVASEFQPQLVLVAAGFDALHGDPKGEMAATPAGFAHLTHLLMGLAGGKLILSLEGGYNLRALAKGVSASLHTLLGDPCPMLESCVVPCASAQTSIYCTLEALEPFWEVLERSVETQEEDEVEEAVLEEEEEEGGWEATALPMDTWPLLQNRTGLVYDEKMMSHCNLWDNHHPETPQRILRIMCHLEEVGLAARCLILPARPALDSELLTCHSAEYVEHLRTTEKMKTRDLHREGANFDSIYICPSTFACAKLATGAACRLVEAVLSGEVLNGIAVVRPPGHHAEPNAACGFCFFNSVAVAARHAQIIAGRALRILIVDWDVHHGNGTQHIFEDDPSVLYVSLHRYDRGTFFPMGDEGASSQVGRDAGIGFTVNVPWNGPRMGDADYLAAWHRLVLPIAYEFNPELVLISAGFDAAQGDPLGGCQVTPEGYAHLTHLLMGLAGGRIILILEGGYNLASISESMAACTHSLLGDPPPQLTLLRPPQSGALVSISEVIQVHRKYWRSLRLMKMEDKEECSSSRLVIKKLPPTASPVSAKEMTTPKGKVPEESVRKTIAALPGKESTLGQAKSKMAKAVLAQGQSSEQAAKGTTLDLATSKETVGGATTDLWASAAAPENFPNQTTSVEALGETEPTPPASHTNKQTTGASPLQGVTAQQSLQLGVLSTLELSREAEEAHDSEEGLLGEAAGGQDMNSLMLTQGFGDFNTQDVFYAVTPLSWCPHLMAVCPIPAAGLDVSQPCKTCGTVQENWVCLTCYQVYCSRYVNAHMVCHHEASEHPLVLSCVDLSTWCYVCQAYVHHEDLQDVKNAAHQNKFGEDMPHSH

Chain of Histone deacetylase 1 (Homo sapiens) (Q13547 whole entry): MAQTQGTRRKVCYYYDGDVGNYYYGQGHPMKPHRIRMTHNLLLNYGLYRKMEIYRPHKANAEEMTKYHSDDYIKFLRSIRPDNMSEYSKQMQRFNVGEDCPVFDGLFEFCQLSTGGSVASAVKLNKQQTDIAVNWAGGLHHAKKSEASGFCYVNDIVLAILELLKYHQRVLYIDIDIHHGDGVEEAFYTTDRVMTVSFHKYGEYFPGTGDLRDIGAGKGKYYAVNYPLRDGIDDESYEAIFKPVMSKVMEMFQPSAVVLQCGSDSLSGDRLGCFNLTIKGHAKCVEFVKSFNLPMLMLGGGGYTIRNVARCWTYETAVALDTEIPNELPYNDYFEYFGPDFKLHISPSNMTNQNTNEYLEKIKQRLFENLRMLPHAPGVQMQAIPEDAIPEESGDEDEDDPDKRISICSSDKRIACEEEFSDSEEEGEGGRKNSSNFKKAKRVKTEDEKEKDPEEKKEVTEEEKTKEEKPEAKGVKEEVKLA
Chain of Histone deacetylase 2 (Homo sapiens) (Q92769 whole entry): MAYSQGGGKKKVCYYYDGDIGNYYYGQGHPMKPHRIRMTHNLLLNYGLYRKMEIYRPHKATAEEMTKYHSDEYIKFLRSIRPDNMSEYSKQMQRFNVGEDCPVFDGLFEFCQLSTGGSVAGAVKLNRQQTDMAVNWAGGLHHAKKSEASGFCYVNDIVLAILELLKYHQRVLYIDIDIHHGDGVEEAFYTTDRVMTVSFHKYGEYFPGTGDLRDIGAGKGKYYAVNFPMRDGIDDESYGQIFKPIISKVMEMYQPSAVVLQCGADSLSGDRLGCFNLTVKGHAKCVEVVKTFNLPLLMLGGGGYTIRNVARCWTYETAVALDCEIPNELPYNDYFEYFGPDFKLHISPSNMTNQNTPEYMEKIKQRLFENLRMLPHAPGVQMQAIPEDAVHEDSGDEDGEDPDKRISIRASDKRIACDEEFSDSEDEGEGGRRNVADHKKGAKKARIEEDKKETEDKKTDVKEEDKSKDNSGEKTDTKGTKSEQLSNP
Chain of Protein cereblon/Protein deacetylase HDAC6 (Homo sapiens) (Q96SW2 whole entry, looked up): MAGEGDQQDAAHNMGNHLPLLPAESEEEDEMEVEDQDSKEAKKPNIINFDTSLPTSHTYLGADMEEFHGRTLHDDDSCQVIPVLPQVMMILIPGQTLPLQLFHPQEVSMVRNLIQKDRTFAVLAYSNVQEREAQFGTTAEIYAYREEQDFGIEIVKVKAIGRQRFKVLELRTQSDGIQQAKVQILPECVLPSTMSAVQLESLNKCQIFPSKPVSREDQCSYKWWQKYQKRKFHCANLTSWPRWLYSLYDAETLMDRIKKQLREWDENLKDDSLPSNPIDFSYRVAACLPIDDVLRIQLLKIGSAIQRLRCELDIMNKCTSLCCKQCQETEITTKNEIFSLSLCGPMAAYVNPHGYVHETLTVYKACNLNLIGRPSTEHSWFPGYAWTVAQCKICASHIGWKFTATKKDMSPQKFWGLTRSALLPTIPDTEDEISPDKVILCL
Chain of Protein cereblon/Protein deacetylase HDAC6 (Homo sapiens) (Q9UBN7 whole entry, looked up): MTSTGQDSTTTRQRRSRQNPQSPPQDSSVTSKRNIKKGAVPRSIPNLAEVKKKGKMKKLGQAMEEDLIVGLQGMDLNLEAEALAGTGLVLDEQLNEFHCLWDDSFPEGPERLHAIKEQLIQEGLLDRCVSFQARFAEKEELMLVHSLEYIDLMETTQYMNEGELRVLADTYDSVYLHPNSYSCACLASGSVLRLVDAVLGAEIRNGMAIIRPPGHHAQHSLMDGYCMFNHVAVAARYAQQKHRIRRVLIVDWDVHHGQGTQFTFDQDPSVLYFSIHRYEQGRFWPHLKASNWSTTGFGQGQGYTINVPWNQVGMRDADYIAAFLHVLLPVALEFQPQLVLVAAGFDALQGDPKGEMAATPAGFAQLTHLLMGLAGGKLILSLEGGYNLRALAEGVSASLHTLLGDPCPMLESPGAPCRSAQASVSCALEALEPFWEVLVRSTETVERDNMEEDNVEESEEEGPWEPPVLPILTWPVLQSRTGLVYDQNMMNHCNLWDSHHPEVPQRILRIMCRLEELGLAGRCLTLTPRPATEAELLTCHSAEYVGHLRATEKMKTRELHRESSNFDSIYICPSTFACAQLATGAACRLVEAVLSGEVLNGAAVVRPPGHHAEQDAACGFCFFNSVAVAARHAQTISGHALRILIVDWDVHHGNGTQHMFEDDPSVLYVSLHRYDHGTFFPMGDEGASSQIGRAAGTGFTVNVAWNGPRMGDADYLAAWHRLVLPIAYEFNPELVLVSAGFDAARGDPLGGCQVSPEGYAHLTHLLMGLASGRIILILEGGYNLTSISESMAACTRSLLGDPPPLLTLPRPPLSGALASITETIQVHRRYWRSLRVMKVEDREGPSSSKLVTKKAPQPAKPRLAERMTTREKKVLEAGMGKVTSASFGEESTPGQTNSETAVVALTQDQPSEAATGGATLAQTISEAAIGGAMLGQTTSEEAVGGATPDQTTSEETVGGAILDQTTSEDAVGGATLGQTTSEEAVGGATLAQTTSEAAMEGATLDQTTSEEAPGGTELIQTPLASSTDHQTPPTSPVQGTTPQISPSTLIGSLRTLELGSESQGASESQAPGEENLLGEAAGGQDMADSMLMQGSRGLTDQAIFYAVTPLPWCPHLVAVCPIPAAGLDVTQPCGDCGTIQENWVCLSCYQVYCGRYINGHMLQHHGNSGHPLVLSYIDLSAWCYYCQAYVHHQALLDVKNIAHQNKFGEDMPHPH

For the compound `O=C1CCC(N2C(=O)c3cccc(NCCOCCOCCn4cc(CN(Cc5ccc(C(=O)NO)cc5)Cc5cccnc5)nn4)c3C2=O)C(=O)N1` (stereo unspecified), the inhibition result in series [1] and in series [2] was “inactive” in each case. Besides, the IC50 on Histone deacetylase 11 is over 10000 nM. Further, the half-life at 1 µM in [3] came to 0.62 h.

For `O=C1CCC(N2C(=O)c3cccc(NCCCCCCn4cc(CN(Cc5ccc(C(=O)NO)cc5)Cc5cccnc5)nn4)c3C2=O)C(=O)N1` (stereo unspecified), the inhibition entry in series [1] and in [2] was “inactive” in each case. The half-life at 1 µM in series [3] was 0.704 h.

As to `CN1C(=O)CCC(N2C(=O)c3cccc(NCCOCCOCCn4cc(CN(Cc5ccc(C(=O)NO)cc5)Cc5cccnc5)nn4)c3C2=O)C1=O` (stereo unspecified), the result in [4] was inactive.

Take `O=C1CCC(N2C(=O)c3cccc(NCCOCCN(Cc4ccc(C(=O)NO)cc4)Cc4cccnc4)c3C2=O)C(=O)N1` (stereo unspecified): the inhibition result in series [1] and in series [2] was “inactive” throughout. Further, the half-life at 1 µM in series [3] was 1.36 h.

`O=C1CCC(N2C(=O)c3cccc(NCCOCCOCCn4cc(CCCCN(Cc5ccc(C(=O)NO)cc5)Cc5cccnc5)nn4)c3C2=O)C(=O)N1` (stereo unspecified): the inhibition entry in series [1] and in series [2] was “inactive” each time. Moreover, the half-life at 1 µM in series [3] is 0.864 h.

On to `O=C1CCC(N2C(=O)c3cccc(NCCOCCn4cc(CCCCN(Cc5ccc(C(=O)NO)cc5)Cc5cccnc5)nn4)c3C2=O)C(=O)N1` (stereo unspecified), for which the inhibition entry in series [1] and in [2] was “inactive” each time. Also, the half-life at 1 µM in series [3] worked out at 1.01 h.

For the compound `O=C(NO)c1ccc(CN(Cc2cccnc2)S(=O)(=O)c2cc(F)c(F)c(F)c2F)cc1`, the figures for the IC50 at Histone deacetylase 11 and on Histone deacetylase 8 were over 1000 nM and 31.6 nM, respectively. In [5], the Ratio IC50 turned out to be 158.

Turning to `O=C1CCC(N2C(=O)c3cccc(NCCCCN(Cc4ccc(C(=O)NO)cc4)Cc4cccnc4)c3C2=O)C(=O)N1` (stereo unspecified), the inhibition entry in series [1] and in series [2] was “inactive” each time. Further, the half-life at 1 µM in series [3] came out at 1.45 h.

On to `O=C1CCC(N2C(=O)c3cccc(NCCCCCCn4cc(CCCCN(Cc5ccc(C(=O)NO)cc5)Cc5cccnc5)nn4)c3C2=O)C(=O)N1` (stereo unspecified), for which the inhibition entry in series [1] and in series [2] was “inactive” throughout. Also, the half-life at 1 µM in [3] is 0.762 h.

As for `O=C1CCC(N2C(=O)c3cccc(NCCN(Cc4ccc(C(=O)NO)cc4)Cc4cccnc4)c3C2=O)C(=O)N1` (stereo unspecified), the inhibition entry in series [1] and in [2] was “inactive” in each case. The half-life at 1 µM in [3] turned out to be 1.29 h.

Turning to `O=C1CCC(N2C(=O)c3cccc(NCCCn4cc(CCCCN(Cc5ccc(C(=O)NO)cc5)Cc5cccnc5)nn4)c3C2=O)C(=O)N1` (stereo unspecified), the inhibition entry in series [1] and in series [2] was “inactive” in each case. Moreover, the result in the series on N2a and with MM1.S was inactive. For the same compound, the half-life at 1 µM in series [3] amounted to 1.05 h.

Turning to `O=C1CCC(N2C(=O)c3cccc(NCCOCCn4cc(CN(Cc5ccc(C(=O)NO)cc5)Cc5cccnc5)nn4)c3C2=O)C(=O)N1` (stereo unspecified), the inhibition entry in series [1] and in [2] was “inactive” throughout. The outcome in the series with N2a was inactive. For the same compound, the Activity in [6] is 60%; in the series on MM1.S it was “Active; Minimal Effect Observed Compared To To-317,Ricolinostat An D Citarinostat”. In series [3], the half-life at 1 µM came out at 1.33 h.

`O=C1CCC(N2C(=O)c3cccc(NCCCn4cc(CN(Cc5ccc(C(=O)NO)cc5)Cc5cccnc5)nn4)c3C2=O)C(=O)N1` (stereo unspecified): the inhibition result in series [1] and in series [2] was “inactive” each time. Besides, the half-life at 1 µM in series [3] stood at 0.738 h.

With `O=C1CCC(N2C(=O)c3cccc(NCCOCCOCCN(Cc4ccc(C(=O)NO)cc4)Cc4cccnc4)c3C2=O)C(=O)N1` (stereo unspecified), the inhibition entry in series [1] and in series [2] was “inactive” each time. In addition, in [3], the half-life at 1 µM came to 1.06 h.

As usually defined, the IC50 is the concentration needed to halve the response being measured. As a reminder, the half-life is the time in which the quantity being followed falls by half.
